According to patent US4604380A, “C-23-substituted mycaminosyltylonolide compounds, pharmaceutical compositions and methods of use” (Eli Lilly and Company, priority 1985, dated 1986):
In brackets after ≈: the same amount, converted by molar mass. Several values for one entry are separate records, joined by “and”; a condition that tells them apart may be missing. Identical values can stand only once. Like-named read-outs stand apart in the source and are kept apart here.

Experiments:
Pasteurella multocida = experiment: Activity in Pasteurella multocida-infected one-day-old chicks (Table VIII); type: in vivo; details: subcutaneous 30 mg/kg × 2, 1 and 4 hours post-challenge, all non-medicated chicks died within 24 hours
Procedure: Table VIII summarizes the results of tests in which illustrative compounds were evaluated against a Pasteurella infection in one-day-old chicks. The compounds were administered parenterally after challenge of the chicks with Pasteurella multocida (0.1 mL of a 10^-4 dilution of a twenty-hour tryptose broth culture of an avian P. multocida given subcutaneously). In these tests, all non-medicated infected chicks died within 24 hours of Pasteurella challenge. In the tests summarized in Table VIII, the compounds were administered by subcutaneous injection at a dosage of 30 mg/kg, 1 and 4 hours post-challenge of the chicks with P. multocida.

Staphylococcus aureus = experiment: ED50 vs. Staphylococcus aureus experimental infection in mice (Table V); type: in vivo; details: sc, subcutaneous, two doses, dose protecting 50% of animals, read-out: ED50 Subcutaneous
Procedure: (§1) Certain formula 1a compounds have also shown in vivo antimicrobial activity against experimental bacterial infections. When two doses of test compound were administered to mice in experimental infections, the activity observed was measured as an ED50 value [effective dose in mg/kg to protect 50% of the test animals: see Warren Wick, et al., J. Bacteriol. 81, 233-235 (1961)].

Streptococcus pyogenes = experiment: ED50 vs Streptococcus pyogenes experimental infection in mice (Table VI); type: in vivo; details: two doses, several values = results from more than one test; for ED50: po, read-out: ED50 Oral
Procedure: as §1

[1] = test system: Mycoplasma gallisepticum 15E; experiment: MIC, conventional broth-dilution microtiter test (Table IV); type: cell-based; details: Mycoplasmoides gallisepticum; broth-dilution microtiter; Mycoplasma gallisepticum 15E; read-out: MIC
Procedure: (§2) The MIC's s in Table III were determined by standard agar-dilution assays. The MIC's in Table IV were obtained using a conventional broth-dilution microtiter test.

[2] = test system: Pasteurella multocida 60A; experiment: as above; type: cell-based
Procedure: as §2

[3] = test system: Pasteurella hemolytica 23C; experiment: as above; type: cell-based
Procedure: as §2

Mycoplasma hyorhinis 29E = experiment: as above; type: cell-based; details: broth-dilution microtiter; Mycoplasma hyorhinis 29E; read-out: MIC
Procedure: as §2

[4] = test system: Pasteurella hemolytica 22C; experiment: as above; type: cell-based; details: Pasteurella, 22C
Procedure: as §2

[5] = test system: Mycoplasma hyopneumoniae S5972; experiment: as above; type: cell-based; details: Mesomycoplasma hyopneumoniae; broth-dilution microtiter; Mycoplasma hyopneumoniae S5972; read-out: MIC
Procedure: as §2

Mycoplasma synoviae 40A = experiment: as above; type: cell-based; details: Mycoplasmopsis synoviae, 40A
Procedure: as §2

[6] = test system: Pasteurella hemolytica 41D; experiment: as above; type: cell-based
Procedure: as §2

[7] = test system: Staphylococcus aureus 19C; experiment: as above; type: cell-based
Procedure: as §2

[8] = test system: Pasteurella multocida 68C; experiment: as above; type: cell-based
Procedure: as §2

Streptococcus sp. 19F = experiment: as above; type: cell-based
Procedure: as §2

[9] = test system: Mycoplasma gallisepticum 36H; experiment: as above; type: cell-based; details: Mycoplasmoides gallisepticum; broth-dilution microtiter; Mycoplasma gallisepticum 36H; read-out: MIC
Procedure: as §2

[10] = test system: Pasteurella multocida 17E; experiment: as above; type: cell-based
Procedure: as §2

[11] = test system: Mycoplasma gallisepticum 29C; experiment: as above; type: cell-based; details: Mycoplasmoides gallisepticum, 29C
Procedure: as §2

[12] = test system: Bordetella bronchisepticum 95B; experiment: as above; type: cell-based
Procedure: as §2

[13] = test system: Pasteurella multocida 40G; experiment: as above; type: cell-based
Procedure: as §2

[14] = test system: Pasteurella multocida 22A; experiment: as above; type: cell-based
Procedure: as §2

[15] = test system: Streptococcus pneumoniae Park I; experiment: microbe, parasite or virus in culture; type: cell-based; details: Streptococcus pneumoniae
Procedure: as §2

[16] = test system: Staphylococcus aureus S13E; experiment: MIC, standard agar-dilution assay (Table III); type: cell-based
Procedure: as §2

[17] = test system: Haemophilus influenzae C.L.; experiment: MIC, standard agar-dilution assay (Table III); type: cell-based
Procedure: as §2

[18] = test system: Staphylococcus epidermidis EPI1; experiment: MIC, standard agar-dilution assay (Table III); type: cell-based; details: Staphylococcus epidermidis, EPI1
Procedure: as §2

[19] = test system: Staphylococcus aureus V41; experiment: MIC, standard agar-dilution assay (Table III); type: cell-based; details: Staphylococcus aureus V41, penicillin-resistant strain
Procedure: as §2

[20] = test system: Staphylococcus aureus X400; experiment: MIC, standard agar-dilution assay (Table III); type: cell-based
Procedure: as §2

[21] = test system: Haemophilus influenzae 76; experiment: MIC, standard agar-dilution assay (Table III); type: cell-based; details: agar dilution; Haemophilus influenzae 76, ampicillin-resistant strain; read-out: MIC
Procedure: as §2

[22] = test system: Staphylococcus epidermidis 222; experiment: MIC, standard agar-dilution assay (Table III); type: cell-based; details: agar dilution; Staphylococcus epidermidis 222; read-out: MIC
Procedure: as §2

[23] = test system: Streptococcus Group D 2041; experiment: MIC, standard agar-dilution assay (Table III); type: cell-based; details: GROUPD2041
Procedure: as §2

[24] = test system: Staphylococcus aureus X1.1; experiment: MIC, standard agar-dilution assay (Table III); type: cell-based
Procedure: as §2

[25] = test system: Streptococcus Group D X66; experiment: MIC, standard agar-dilution assay (Table III); type: cell-based
Procedure: as §2

[26] = test system: Streptococcus pyogenes C203; experiment: MIC, standard agar-dilution assay (Table III); type: cell-based; details: agar dilution; Streptococcus pyogenes C203; read-out: MIC
Procedure: as §2

[27] = test system: Streptococcous pneumoniae; experiment: ED50 vs. Streptococcous pneumoniae experimental infection in mice (Table VII); type: in vivo; details: Mus musculus, sc, subcutaneous, two doses, read-out: ED50 Subcutaneous
Procedure: as §1

CCC1OC(=O)CC(O)C(C)C(OC2OC(C)C(O)C(N(C)C)C2O)C(CC=O)CC(C)C(=O)C=CC(C)=CC1CNC12CC3CC(CC(C3)C1)C2 (stereo not shown) [Compound 1, 23-deoxy-23-(1-adamantanylamino)-OMT]
Number of Deaths/Number Treated (Pasteurella multocida): 0/10 | ED50 (Staphylococcus aureus): 3.58 mg/kg | ED50 Oral (Streptococcus pyogenes; oral): 81.8 mg/kg × 2 | ED50 (Streptococcus pyogenes): > 100 mg/kg | MIC [1]: 6.25 µg/mL (≈ 8.55 µM) | MIC ([2]; Pasteurella multocida, 60A): 0.78 µg/mL (≈ 1.07 µM) | MIC ([3]; Pasteurella, 23C): 1.56 µg/mL (≈ 2.13 µM) | MIC (Mycoplasma hyorhinis 29E): 0.39 µg/mL (≈ 0.534 µM) | MIC [4]: 3.12 µg/mL (≈ 4.27 µM) | MIC [5]: < 0.024 µg/mL | MIC (Mycoplasma synoviae 40A): < 0.048 µg/mL | MIC ([6]; Pasteurella, 41D): 1.56 µg/mL (≈ 2.13 µM) | MIC ([7]; Staphylococcus aureus, 19C): 0.78 µg/mL (≈ 1.07 µM) | MIC ([8]; Pasteurella multocida, 68C): 0.78 µg/mL (≈ 1.07 µM) | MIC (Streptococcus sp. 19F): < 0.048 µg/mL | MIC [9]: 6.25 µg/mL (≈ 8.55 µM) | MIC ([10]; Pasteurella multocida, 17E): 0.78 µg/mL (≈ 1.07 µM) | MIC [11]: 0.097 µg/mL (≈ 0.133 µM) | MIC [12]: 6.25 µg/mL (≈ 8.55 µM) | MIC ([13]; Pasteurella multocida, 40G): 0.78 µg/mL (≈ 1.07 µM) | MIC ([14]; Pasteurella multocida, 22A): 0.78 µg/mL (≈ 1.07 µM) | MIC ([15]; read-out: MIC): 0.06 µg/mL (≈ 0.0821 µM) | MIC [16]: 0.5 µg/mL (≈ 0.684 µM) | MIC ([17]; Haemophilus influenzae): 2 µg/mL (≈ 2.74 µM) | MIC [18]: 0.5 µg/mL (≈ 0.684 µM) | MIC [19]: 0.5 µg/mL (≈ 0.684 µM) | MIC ([20]; Staphylococcus aureus, X400): 0.5 µg/mL (≈ 0.684 µM) | MIC [21]: 0.5 µg/mL (≈ 0.684 µM) | MIC [22]: 0.125 µg/mL (≈ 0.171 µM) | MIC [23]: 0.5 µg/mL (≈ 0.684 µM) | MIC [24]: 0.5 µg/mL (≈ 0.684 µM) | MIC [25]: 0.5 µg/mL (≈ 0.684 µM) | MIC [26]: 0.125 µg/mL (≈ 0.171 µM) | ED50 [27]: 2.5 mg/kg

CCC1OC(=O)CC(O)C(C)C(OC2OC(C)C(O)C(N(C)C)C2O)C(CC=O)CC(C)C(=O)C=CC(C)=CC1CN1CCCC2CCCCC21 (stereo not shown) [Compound 20, 23-deoxy-23-(decahydroquinolin-1-yl)-OMT]
Number of Deaths/Number Treated (Pasteurella multocida): 6/10 and 8/10 | ED50 (Staphylococcus aureus): 10 mg/kg | ED50 (Streptococcus pyogenes): 77 mg/kg | MIC [1]: 0.39 µg/mL (≈ 0.542 µM) | MIC ([2]; broth-dilution microtiter, Pasteurella multocida 60A, avian isolate, read-out: MIC): 0.78 µg/mL (≈ 1.08 µM) | MIC ([3]; broth-dilution microtiter, Pasteurella hemolytica 23C, read-out: MIC): 0.78 µg/mL (≈ 1.08 µM) | MIC (Mycoplasma hyorhinis 29E): 0.39 µg/mL (≈ 0.542 µM) | MIC [4]: 3.12 µg/mL (≈ 4.34 µM) | MIC [5]: < 0.024 µg/mL | MIC (Mycoplasma synoviae 40A): < 0.048 µg/mL | MIC ([6]; broth-dilution microtiter, Pasteurella hemolytica 41D, read-out: MIC): 1.56 µg/mL (≈ 2.17 µM) | MIC ([7]; broth-dilution microtiter, Staphylococcus aureus 19C, read-out: MIC): 1.56 µg/mL (≈ 2.17 µM) | MIC ([8]; broth-dilution microtiter, Pasteurella multocida 68C, read-out: MIC): 0.78 µg/mL (≈ 1.08 µM) | MIC (Streptococcus sp. 19F): < 0.048 µg/mL | MIC [9]: 0.78 µg/mL (≈ 1.08 µM) | MIC ([10]; broth-dilution microtiter, Pasteurella multocida 17E, bovine isolate, read-out: MIC): 0.78 µg/mL (≈ 1.08 µM) | MIC [11]: > 0.048 µg/mL | MIC [12]: 6.25 µg/mL (≈ 8.69 µM) | MIC ([13]; broth-dilution microtiter, Pasteurella multocida 40G, read-out: MIC): 0.39 µg/mL (≈ 0.542 µM) | MIC ([14]; broth-dilution microtiter, Pasteurella multocida 22A, read-out: MIC): 0.78 µg/mL (≈ 1.08 µM) | MIC [15]: 0.03 µg/mL (≈ 0.0417 µM) | MIC [16]: 0.25 µg/mL (≈ 0.348 µM) | MIC ([17]; agar dilution, Haemophilus influenzae C.L., ampicillin-sensitive strain, read-out: MIC): 1 µg/mL (≈ 1.39 µM) | MIC [18]: 0.25 µg/mL (≈ 0.348 µM) | MIC [19]: 0.25 µg/mL (≈ 0.348 µM) | MIC ([20]; agar dilution, Staphylococcus aureus X400, methicillin-resistant strain, read-out: MIC): 0.5 µg/mL (≈ 0.695 µM) | MIC [21]: 1 µg/mL (≈ 1.39 µM) | MIC [22]: 0.125 µg/mL (≈ 0.174 µM) | MIC [23]: 0.25 µg/mL (≈ 0.348 µM) | MIC [24]: 0.25 µg/mL (≈ 0.348 µM) | MIC [25]: 0.25 µg/mL (≈ 0.348 µM) | MIC [26]: 0.125 µg/mL (≈ 0.174 µM) | ED50 [27]: 5 mg/kg
